Experimental data published in ChEMBL document CHEMBL1129392, “Design, synthesis, and evolution of a novel, selective, and orally bioavailable class of thrombin inhibitors: P1-argininal derivatives incorporating P3-P4 lactam sulfonamide moieties” (J Med Chem, 1996).
pIC50, pKi: −log10 of the molar value.

Legend:
Trypsin II = target: T1, Trypsin II (Bos taurus, UniProt Q29463); assay: compound was tested in vitro for inhibition of serine protease Trypsin.
T1 sequence (Q29463 whole entry): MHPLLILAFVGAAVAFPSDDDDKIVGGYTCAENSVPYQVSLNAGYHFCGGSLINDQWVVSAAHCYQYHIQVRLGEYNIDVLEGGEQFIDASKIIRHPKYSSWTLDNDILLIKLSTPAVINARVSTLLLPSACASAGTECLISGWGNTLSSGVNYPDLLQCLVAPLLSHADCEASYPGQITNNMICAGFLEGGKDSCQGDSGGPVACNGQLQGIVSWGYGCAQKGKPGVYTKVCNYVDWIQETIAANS

Prothrombin [1] = target: T2, Prothrombin (Homo sapiens, UniProt P00734); assay: In vitro for inhibition of serine protease thrombin(FIIa).
Coagulation factor X [2] = target: T3, Coagulation factor X (Homo sapiens, UniProt P00742); assay: compound was tested in vitro for inhibition of Coagulation factor X; inactive
Coagulation factor X [3] = target: T3, Coagulation factor X
Description: In vitro for inhibition of Coagulation factor X

Prothrombin [4] = target: T2, Prothrombin; assay: compound was tested in vitro for inhibition of serine protease thrombin(FIIa).
Serine protease 1 [5] = target: T4, Serine protease 1 (Homo sapiens, UniProt P07477); assay: In vitro for inhibition of serine protease Trypsin.
Coagulation factor X [6] = target: T3, Coagulation factor X; assay: compound was tested in vitro for inhibition of Coagulation factor X
Serine protease 1 [7] = target: T4, Serine protease 1; assay: compound was tested in vitro for inhibition of serine protease Trypsin; inactive
Prothrombin [8] = target: T2, Prothrombin; assay: compound was tested in vitro for inhibition of serine protease thrombin (FIIa); inactive

T3 sequence (P00742 41-179 limits assumed): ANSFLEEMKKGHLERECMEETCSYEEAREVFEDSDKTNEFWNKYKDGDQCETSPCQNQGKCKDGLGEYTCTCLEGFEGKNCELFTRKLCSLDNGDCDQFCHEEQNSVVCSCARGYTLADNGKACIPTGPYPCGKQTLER
T3 sequence (P00742 235-488 limits assumed): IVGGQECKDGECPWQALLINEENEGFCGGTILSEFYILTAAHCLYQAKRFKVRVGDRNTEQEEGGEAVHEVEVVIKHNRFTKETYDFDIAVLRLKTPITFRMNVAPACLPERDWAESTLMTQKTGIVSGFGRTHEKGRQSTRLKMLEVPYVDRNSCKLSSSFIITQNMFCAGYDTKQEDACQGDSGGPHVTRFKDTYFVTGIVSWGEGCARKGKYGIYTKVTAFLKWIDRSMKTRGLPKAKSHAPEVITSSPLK
T4 sequence (P07477 whole entry): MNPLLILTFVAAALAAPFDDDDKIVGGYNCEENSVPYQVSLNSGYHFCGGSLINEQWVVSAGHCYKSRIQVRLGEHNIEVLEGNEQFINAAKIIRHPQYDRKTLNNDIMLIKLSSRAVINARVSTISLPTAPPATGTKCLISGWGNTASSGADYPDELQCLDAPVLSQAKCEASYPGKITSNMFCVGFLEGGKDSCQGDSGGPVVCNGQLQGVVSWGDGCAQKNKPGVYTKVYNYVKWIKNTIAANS

| SMILES | pIC50 (Prothrombin [1]) | pIC50 (Coagulation factor X [3]) | pIC50 (Serine protease 1 [5]) | other results |
| --- | --- | --- | --- | --- |
| N=C(N)C1CCC[C@H](NC(=O)CN2CCC[C@H](NC(=O)Cc3ccccc3)C2=O)C1O (stereo not given in full) | 5.60 |  |  | pIC50 (Trypsin II): < 5.60; IC50 (Coagulation factor X [2]): Not Active |
| CCCCS(=O)(=O)N[C@H]1CCCN(CC(=O)N[C@H]2CCCC(C(=N)N)C2O)C1=O (stereo not given in full) | 6.15 | 5.60 |  | pIC50 (Trypsin II): 5.60 |
| CN[C@H](Cc1ccccc1)C(=O)N1CCC[C@@H]1C(=O)N[C@H]1CCCC(C(=N)N)C1O (stereo not given in full) | 9.15 | < 5.60 | 8.82 |  |
| C[C@H](C(=O)N[C@H]1CCCC(C(=N)N)C1O)N1CCCC[C@H](NS(=O)(=O)Cc2ccccc2)C1=O (stereo not given in full) | < 5.60 |  | < 5.60 | IC50 (Coagulation factor X [2]): Not Active |
| N=C(N)C1CCC[C@H](NC(=O)CN2CCC[C@H](NS(=O)(=O)c3ccccc3)C2=O)C1O (stereo not given in full) | 6.80 | 5.96 | 6.11 |  |
| N=C(N)C1CCC[C@H](NC(=O)CN2CCC[C@H](NS(=O)(=O)Cc3ccccc3)C2=O)C1O (stereo not given in full) | 8.21 | 5.60 | 6.10 | pKi (Prothrombin [4]): 9.00 |
| N=C(N)C1CCCC(NC(=O)CN2CC[C@H](NS(=O)(=O)Cc3ccccc3)C2=O)C1O (stereo not given in full) |  |  |  | pIC50 (Trypsin II): 6.27; pIC50 (Prothrombin [4]): 6.90; pIC50 (Coagulation factor X [6]): 5.60 |
| N=C(N)C1CCC[C@H](NC(=O)CN2CCC[C@@H](NS(=O)(=O)Cc3ccccc3)C2=O)C1O (stereo not given in full) | 6.80 | 5.60 | 6.33 |  |
| N=C(N)C1CCC[C@H](NC(=O)CN2CCC[C@H](NS(=O)(=O)CCc3ccccc3)C2=O)C1O (stereo not given in full) | 6.38 | 5.60 | 5.60 |  |
| N=C(N)C1CCC[C@H](NC(=O)CN2CCC[C@H](NC(=O)NS(=O)(=O)c3ccccc3)C2=O)C1O (stereo not given in full) |  |  |  | IC50 (Serine protease 1 [7]): Not Active; IC50 (Coagulation factor X [2]): Not Active; IC50 (Prothrombin [8]): Not Active |
| COC(=O)c1ccccc1CS(=O)(=O)N[C@H]1CCCCN(CC(=O)N[C@H]2CCCC(C(=N)N)C2O)C1=O (stereo not given in full) | 8.95 | 6.33 | 6.86 | pKi (Prothrombin [4]): 9.07 |
| CC(C(=O)N[C@H]1CCCC(C(=N)N)C1O)N1CCC[C@H](NS(=O)(=O)Cc2ccccc2)C1=O (stereo not given in full) | 6.54 | 5.60 |  | pIC50 (Trypsin II): 6.53 |

Further lines, with some results ahead:

| pIC50 (Prothrombin [1]) | pIC50 (Coagulation factor X [3]) | pIC50 (Serine protease 1 [5]) | SMILES | other results |
| --- | --- | --- | --- | --- |
| 9.15 | 7.69 | 7.13 | N=C(N)C1CCC[C@H](NC(=O)CN2CCCC[C@H](NS(=O)(=O)Cc3ccccc3)C2=O)C1O (stereo not given in full) | pKi (Prothrombin [4]): 9.27 |
| 6.63 | 5.71 | 6.83 | N=C(N)C1CCC[C@H](NC(=O)CN2CCC[C@H](NS(=O)(=O)NC3CCCCC3)C2=O)C1O (stereo not given in full) |  |
| 6.95 | 5.60 |  | N=C(N)C1CCC[C@H](NC(=O)CN2CCC[C@H](NS(=O)(=O)c3cccc4ccccc34)C2=O)[C@@H]1O (stereo not given in full) | pIC50 (Trypsin II): 5.99 |
| 7.85 | 6.32 | 7.78 | N=C(N)C1CCC[C@H](NC(=O)CN2CCCC[C@H](NS(=O)(=O)c3ccccc3)C2=O)C1O (stereo not given in full) |  |
| 8.96 |  | 8.87 | CCCC(CCC)C(=O)N[C@@H](CC(=O)OC)C(=O)N1CCC[C@@H]1C(=O)N[C@H]1CCCC(C(=N)N)C1O (stereo not given in full) |  |
|  | 5.60 | 4.78 | CC(C)(C)OC(=O)N[C@H]1CCCN(CC(=O)N[C@H]2CCCC(C(=N)N)C2O)C1=O (stereo not given in full) |  |
